Measured values published in ChEMBL document CHEMBL1142141, “Molecular mechanism of flucytosine resistance in Candida lusitaniae: contribution of the FCY2, FCY1, and FUR1 genes to 5-fluorouracil and fluconazole cross-resistance” (2007).
≈ marks a conversion by molar mass, not a printed value.

Legend:
Format in all cases: functional
Clavispora lusitaniae [1] = test: Antifungal activity against Candida lusitaniae 6936 revertant fcy2delta::[FCY2-URA3] by microdilution assay
Clavispora lusitaniae [2] = test: Antifungal activity against Candida lusitaniae 6936 URA3[D95V] derived null mutant fur1delta::URA3 by microdilution assay
Clavispora lusitaniae [3] = test: Antifungal activity against Candida lusitaniae 6936 by microdilution assay
Clavispora lusitaniae [4] = test: Antifungal activity against Candida lusitaniae 6936 URA3[D95V] derived null mutant fcy2delta::URA3 by microdilution assay
Clavispora lusitaniae [5] = test: Antifungal activity against Candida lusitaniae 6936 URA3[D95V] derived null mutant fcy1delta::URA3 by microdilution assay
Clavispora lusitaniae [6] = test: Antifungal activity against Candida lusitaniae 6936 revertant fcy1delta::[FCY1-URA3] by microdilution assay

| Structure (SMILES) | MIC (Clavispora lusitaniae [1]) [µg/mL] | MIC (Clavispora lusitaniae [2]) [µg/mL] | MIC (Clavispora lusitaniae [3]) [µg/mL] | MIC (Clavispora lusitaniae [4]) [µg/mL] | MIC (Clavispora lusitaniae [5]) [µg/mL] | MIC (Clavispora lusitaniae [6]) [µg/mL] |
| --- | --- | --- | --- | --- | --- | --- |
| OC(Cn1cncn1)(Cn1cncn1)c1ccc(F)cc1F [FLUCONAZOLE] | 2 (≈ 6.53 µM) | 2 (≈ 6.53 µM) | 2 (≈ 6.53 µM) | 2 (≈ 6.53 µM) | 2 (≈ 6.53 µM) | 2 (≈ 6.53 µM) |
| Nc1nc(=O)[nH]cc1F [FLUCYTOSINE] | ≤ 0.5 | ≥ 512 | ≤ 0.5 | 64 (≈ 496 µM) | 128 (≈ 992 µM) | ≤ 0.5 |
| O=c1[nH]cc(F)c(=O)[nH]1 [FLUOROURACIL] | ≤ 0.5 | ≥ 512 | ≤ 0.5 | ≤ 0.5 | ≤ 0.5 | ≤ 0.5 |
